Results taken from patent US10472395B2, “Cyclic peptide analogs and conjugates thereof” (Sirenas LLC, priority 2015, dated 2019).
Numbered stars: 1 amine (or outer) side, 2 acyl side, 3 side chain; on linkers, the order of the positions; unused ones are H or OH. Bridge positions count the residues as written; N and C are the ends. Square brackets hold non-standard residues; d marks the D form. Peptide text beside a SMILES is read from it. ξ: configuration not given here. X8 = C/C=C(\C)[C@@H](O[*:2])[C@@H](C)CC/C=C(\C)C(=O)[*:1]; X2 = C/C(=C\CCC[C@@H](O[*:2])C(C)C)C(=O)[*:1]; X7 = C/C(=C\CCC[C@H](O[*:2])C(C)C)C(=O)[*:1]; X1 = C/C(=C\CC[C@@H](C)CO[*:2])C(=O)[*:1]; X5 = C/C(=C\CC[C@H](C)CO[*:2])C(=O)[*:1]; dNMeF = CN[C@H](Cc1ccccc1)C(=O)O; Ile(3ξ) = CCC(C)[C@H](N)C(=O)O; dHica = CC(C)C[C@@H](O)C(=O)O; dNMeA = CN[C@H](C)C(=O)O; Sar = CNCC(=O)O

Assays:
[1] = test system: BT-474 human mammary gland ductal carcinoma cells; assay: Inhibitory response of test compounds against BT-474 cells (Cell Titer-Glo, 72 h); assay type: cell-based; details: Homo sapiens
Method: (§1) BT-474 human mammary gland ductal carcinoma cells were seeded in a clear polystyrene 96-well microculture plate (Corning® Costar® 96-well flat bottom plate, Cat.#3997) in a total volume of 90 μL/well. After 24 hours of incubation in a humidified incubator at 37° C. with 5% CO2 and 95% air, 10 μL of 10×, serially diluted test agents in growth medium were added to each well (10 pt dose response curve, highest concentration 10 μM of test agent). After 72 hours of culture in a humidified incubator at 37° C., in an atmosphere of 5% CO2 and 95% air, the plated cells and Cell Titer-Glo® (Promega G7571) reagents were brought to room temperature to equilibrate for 30 minutes. 100 μL of Cell Titer-Glo® reagent was added to each well. The plate was shaken for two minutes and then left to equilibrate for ten minutes. The media/Cell Titer-Glo® reagent was transferred to a white polystyrene 96-well microculture plate (Corning® Costar® 96-well flat bottom plate, Cat.#3917) before reading luminescence on a Tecan GENios microplate reader.
(§2) Percent inhibition of cell growth was calculated relative to untreated control wells. The IC50 value for the test agents was determined using Prism 6.05 by curve-fitting of the data using the following four parameter-logistic equation:
(§3) [formula] where Top is the maximal % of control absorbance, Bottom is the minimal % of control absorbance at the highest agent concentration, Y is the % of control absorbance, X is the agent concentration, IC50 is the concentration of agent that inhibits cell growth by 50% compared to the control cells, and n is the slope of the curve.

HCC1954 cells = assay: Inhibitory response of test compounds against HCC1954 cells (method analogous to BT-474); assay type: cell-based; details: Homo sapiens
Method: as §1, §2, §3
Inhibitory response of test compounds against HCC1954 cells was determined using a method analogous to that used for BT-474 cells.

SMILES	IC50 [1]	IC50 (HCC1954 cells)
CCC(C)[C@@H]1NC(=O)CN(C)C(=O)[C@@H](Cc2ccccc2)N(C)C(=O)[C@H](C)NC(=O)[C@@H](CC(C)C)OC(=O)/C(C)=C/CCC[C@@H](C(C)C)OC(=O)[C@@H](C)NC1=O (stereo partly drawn) [Compound 86] ([dHica]A[dNMeF][Sar][Ile(3ξ)][dA]; linker N-C via X7)	200 to 10000 nM	200 to 10000 nM
CCC(C)[C@@H]1NC(=O)CN(C)C(=O)[C@@H](Cc2ccccc2)N(C)C(=O)[C@H](C)NC(=O)[C@@H](CC(C)C)OC(=O)/C(C)=C/CCC[C@H](C(C)C)OC(=O)[C@@H](C)NC1=O (stereo partly drawn) [Compound 87] ([dHica]A[dNMeF][Sar][Ile(3ξ)][dA]; linker N-C via X2)	200 to 10000 nM	200 to 10000 nM
CCC(C)[C@@H]1NC(=O)CN(C)C(=O)[C@@H](Cc2ccccc2)N(C)C(=O)[C@H](C)NC(=O)[C@@H](CC(C)C)OC(=O)/C(C)=C/CCC[C@@H](C(C)C)OC(=O)[C@@H](C)N(C)C1=O (stereo partly drawn) [Compound 88] ([dHica]A[dNMeF][Sar][Ile(3ξ)][dNMeA]; linker N-C via X7)	200 to 10000 nM	200 to 10000 nM
CCC(C)[C@@H]1NC(=O)CN(C)C(=O)[C@@H](Cc2ccccc2)N(C)C(=O)[C@H](C)NC(=O)[C@@H](CC(C)C)OC(=O)/C(C)=C/CCC[C@H](C(C)C)OC(=O)[C@@H](C)N(C)C1=O (stereo partly drawn) [Compound 89] ([dHica]A[dNMeF][Sar][Ile(3ξ)][dNMeA]; linker N-C via X2)	20 to 200 nM	200 to 10000 nM
C/C=C(\C)[C@H]1OC(=O)[C@@H](C)NC(=O)[C@H](C(C)CC)NC(=O)CN(C)C(=O)[C@@H](Cc2ccccc2)N(C)C(=O)[C@H](C)NC(=O)[C@@H](CC(C)C)OC(=O)/C(C)=C/CC[C@@H]1C (stereo partly drawn) [Compound 90]	< 20 nM	< 20 nM
CCC(C)[C@@H]1NC(=O)CN(C)C(=O)[C@@H](Cc2ccccc2)N(C)C(=O)[C@H](C)NC(=O)[C@@H](CC(C)C)OC(=O)/C(C)=C/CC[C@H](C)COC(=O)[C@@H](C)NC1=O (stereo partly drawn) [Compound 91] ([dHica]A[dNMeF][Sar][Ile(3ξ)][dA]; linker N-C via X5)	200 to 10000 nM	200 to 10000 nM
CCC(C)[C@@H]1NC(=O)CN(C)C(=O)[C@@H](Cc2ccccc2)N(C)C(=O)[C@H](C)NC(=O)[C@@H](CC(C)C)OC(=O)/C(C)=C/CC[C@@H](C)COC(=O)[C@@H](C)NC1=O (stereo partly drawn) [Compound 92] ([dHica]A[dNMeF][Sar][Ile(3ξ)][dA]; linker N-C via X1)	200 to 10000 nM	200 to 10000 nM
C/C=C(\C)[C@H]1OC(=O)[C@@H](C)NC(=O)[C@H](C(C)CC)NC(=O)CN(C)C(=O)[C@@H](Cc2ccccc2)N(C)C(=O)[C@H](C)NC(=O)[C@@H](CC(C)C)OC(=O)/C(C)=C/C[C@H](OC(=O)N(C)CCN(C)C(=O)OC(C)(C)C)[C@@H]1C (stereo partly drawn) [Compound 93]	< 20 nM	< 20 nM
C/C=C(\C)[C@H]1OC(=O)[C@@H](C)NC(=O)[C@H](C(C)CC)NC(=O)CN(C)C(=O)[C@@H](Cc2ccccc2)N(C)C(=O)[C@H](C)NC(=O)[C@@H](CC(C)C)OC(=O)/C(C)=C/C[C@H](OCSC)[C@@H]1C (stereo partly drawn) [Compound 94]	< 20 nM	< 20 nM
C/C=C(\C)[C@H]1OC(=O)[C@@H](C)NC(=O)[C@H](C(C)CC)NC(=O)CN(C)C(=O)[C@@H](Cc2ccc(OC)cc2)N(C)C(=O)[C@H](C)NC(=O)[C@@H](CC(C)C)OC(=O)/C(C)=C/C=C/[C@@H]1C (stereo partly drawn) [Compound 95]	< 20 nM	20 to 200 nM
C/C=C(\C)[C@H]1OC(=O)[C@@H](C)NC(=O)[C@H]([C@H](C)CC)NC(=O)CN(C)C(=O)[C@@H](Cc2ccccc2)N(C)C(=O)[C@H](CCCCNC(=O)OC(C)(C)C)NC(=O)[C@@H](CC(C)C)OC(=O)/C(C)=C/C[C@H](O)[C@@H]1C [Compound 96]	< 20 nM	< 20 nM
C/C=C(\C)[C@H]1OC(=O)[C@@H](C)NC(=O)[C@H]([C@H](C)CC)NC(=O)CN(C)C(=O)[C@@H](Cc2ccc(OCc3ccccc3)cc2)N(C)C(=O)[C@H](C)NC(=O)[C@@H](CC(C)C)OC(=O)/C(C)=C/C=C/[C@@H]1C [Compound 98]	< 20 nM	< 20 nM
C/C=C(\C)[C@H]1OC(=O)[C@@H](C)NC(=O)[C@H](C(C)CC)NC(=O)CN(C)C(=O)[C@@H](Cc2ccc(O)cc2)N(C)C(=O)[C@H](C)NC(=O)[C@@H](CC(C)C)OC(=O)/C(C)=C/C=C/[C@@H]1C (stereo partly drawn) [Compound 99]	20 to 200 nM	200 to 10000 nM
C/C=C(\C)[C@H]1OC(=O)[C@@H](C)N(C)C(=O)[C@H](C(C)CC)NC(=O)CN(C)C(=O)[C@@H](Cc2ccccc2)N(C)C(=O)[C@H](C)NC(=O)[C@@H](CC(C)C)OC(=O)/C(C)=C/CC[C@@H]1C (stereo partly drawn) [Compound 100] ([dHica]A[dNMeF][Sar][Ile(3ξ)][dNMeA]; linker N-C via X8)	< 20 nM	20 to 200 nM
C/C=C(\C)[C@H]1OC(=O)[C@@H](C)NC(=O)[C@H]([C@H](C)CC)NC(=O)CN(C)C(=O)[C@@H](Cc2ccc(F)cc2)N(C)C(=O)[C@H](C)NC(=O)[C@@H](CC(C)C)OC(=O)/C(C)=C/C[C@H](OCSC)[C@@H]1C [Compound 101]	< 20 nM	< 20 nM
C/C=C(\C)[C@H]1OC(=O)[C@@H](C)NC(=O)[C@H](C(C)CC)NC(=O)CN(C)C(=O)[C@@H](Cc2ccc(O)cc2)N(C)C(=O)[C@H](C)NC(=O)[C@@H](CC(C)C)OC(=O)/C(C)=C/CC[C@@H]1C (stereo partly drawn) [Compound 102]	< 20 nM	20 to 200 nM
C/C=C(\C)[C@H]1OC(=O)[C@@H](C)NC(=O)[C@H]([C@H](C)CC)NC(=O)CN(C)C(=O)[C@@H](Cc2ccccc2)N(C)C(=O)[C@H](C)NC(=O)[C@@H](CC(C)C)OC(=O)/C(C)=C/C[C@H](OC(=O)NCCCCCCNC(=O)OC(C)(C)C)[C@@H]1C [Compound 105]	< 20 nM	< 20 nM
C/C=C(\C)[C@H]1OC(=O)[C@@H](C)NC(=O)[C@H]([C@H](C)CC)NC(=O)CN(C)C(=O)[C@@H](Cc2ccccc2)N(C)C(=O)[C@H](C)NC(=O)[C@@H](CC(C)C)OC(=O)/C(C)=C/C[C@H](OC(=O)NCCCOCCOCCOCCCNC(=O)OC(C)(C)C)[C@@H]1C [Compound 106]	< 20 nM	< 20 nM
C/C=C(\C)[C@H]1OC(=O)[C@@H](C)NC(=O)[C@H](C(C)CC)NC(=O)CN(C)C(=O)[C@@H](Cc2ccccc2)N(C)C(=O)[C@H](C)NC(=O)[C@@H](CC(C)C)OC(=O)/C(C)=C/C[C@H](CC(=O)NCCCCCCN)[C@@H]1C (stereo partly drawn) [Compound 107]	< 20 nM	20 to 200 nM
C/C=C(\C)[C@H]1OC(=O)[C@@H](C)NC(=O)[C@H](C(C)CC)NC(=O)CN(C)C(=O)[C@@H](Cc2ccccc2)N(C)C(=O)[C@H](C)NC(=O)[C@@H](CC(C)C)OC(=O)/C(C)=C/C[C@H](OC(=O)NCCCOCCOCCOCCCN)[C@@H]1C (stereo partly drawn) [Compound 108]	20 to 200 nM	200 to 10000 nM
C/C=C(\C)[C@H]1OC(=O)[C@@H](C)NC(=O)[C@H]([C@H](C)CC)NC(=O)CN(C)C(=O)[C@@H](Cc2ccccc2)N(C)C(=O)[C@H](C)NC(=O)[C@@H](CC(C)C)OC(=O)/C(C)=C/C[C@H](CC(=O)N(C)CCN(C)C(=O)c2ccc(C=O)cc2)[C@@H]1C [Compound 110]	< 20 nM	20 to 200 nM
C/C=C(\C)[C@H]1OC(=O)[C@@H](C)NC(=O)[C@H]([C@H](C)CC)NC(=O)CN(C)C(=O)[C@@H](Cc2ccccc2)N(C)C(=O)[C@H](C)NC(=O)[C@@H](CC(C)C)OC(=O)/C(C)=C/C[C@H](OC(=O)NCCCCCCNC(=O)CCOCCOCCOCCOCCNC(=O)c2ccc(C=O)cc2)[C@@H]1C [Compound 111]	> 10000 nM	> 10000 nM
C/C=C(\C)[C@H]1OC(=O)[C@@H](C)NC(=O)[C@H]([C@H](C)CC)NC(=O)CN(C)C(=O)[C@@H](Cc2ccccc2)N(C)C(=O)[C@H](C)NC(=O)[C@@H](CC(C)C)OC(=O)/C(C)=C/C[C@H](OC(=O)NCCCOCCOCCOCCCN=[N+]=N)[C@@H]1C [Compound 113]	< 20 nM	< 20 nM
C/C=C(\C)[C@H]1OC(=O)[C@@H](C)NC(=O)[C@H]([C@H](C)CC)NC(=O)CN(C)C(=O)[C@@H](Cc2ccccc2)N(C)C(=O)[C@H](C)NC(=O)[C@@H](CC(C)C)OC(=O)/C(C)=C/C[C@H](OC(=O)N(C)CCN(C)C=O)[C@@H]1C [Compound 114]	< 20 nM	20 to 200 nM
C/C=C(\C)[C@H]1OC(=O)[C@@H](C)NC(=O)[C@H]([C@H](C)CC)NC(=O)CN(C)C(=O)[C@@H](Cc2ccccc2)N(C)C(=O)[C@H](C)NC(=O)[C@@H](CC(C)C)OC(=O)/C(C)=C/C[C@H](OC(=O)N(C)CCN(C)S(=O)(=O)c2ccc([N+](=O)[O-])cc2)[C@@H]1C [Compound 115]	< 20 nM	< 20 nM
C/C=C(\C)[C@H]1OC(=O)[C@@H](C)NC(=O)[C@H]([C@H](C)CC)NC(=O)CN(C)C(=O)[C@@H](Cc2ccccc2)N(C)C(=O)[C@H](C)NC(=O)[C@@H](CC(C)C)OC(=O)/C(C)=C/C[C@H](OC(=O)NCCCOCCOCCOCCCNC(=O)c2ccc(C(C)=O)cc2)[C@@H]1C [Compound 116]	< 20 nM	20 to 200 nM
C/C=C(\C)[C@H]1OC(=O)[C@@H](C)NC(=O)[C@H]([C@H](C)CC)NC(=O)CN(C)C(=O)[C@@H](Cc2ccccc2)N(C)C(=O)[C@H](C)NC(=O)[C@@H](CC(C)C)OC(=O)/C(C)=C/C[C@H](OC(=O)N(C)CCN(C)C(=O)OCC[Si](C)(C)C)[C@@H]1C [Compound 117]	20 to 200 nM	20 to 200 nM
